# Assay: Neuroprotective activity against cobalt chloride-induced neurotoxicity in rat NGF-differentiated PC12 cells assessed as increase of neurite-bearing cell level at 60 uM after 12 hrs
# Conditions: not given
row,SMILES,Activity [%]
1,COc1ccc(/C=C/C(=O)OCc2nc(C)c(C)nc2C)c(OC)c1OC,50.8

# Assay: Neuroprotective activity against cobalt chloride-induced neurotoxicity in rat differentiated PC12 cells
# Format: functional, cell-based
# Conditions: pc-12
row,SMILES,EC50 [µM]
1,COc1cc(/C=C/C(=O)OCc2nc(C)c(C)nc2C)cc(OC)c1OC,< 24
2,COc1ccccc1/C=C/C(=O)OCc1nc(C)c(C)nc1C,< 24
3,COc1cccc(/C=C/C(=O)OCc2nc(C)c(C)nc2C)c1OC,< 24
4,COc1ccc(/C=C/C(=O)OCc2nc(C)c(C)nc2C)c(OC)c1OC,0.719
5,COc1ccc(C(C)=O)c(OCc2nc(C)c(C)nc2C)c1,< 15
6,C=CCc1ccc(OCc2nc(C)c(C)nc2C)c(OC)c1,4.62
7,Cc1nc(C)c(COC(=O)c2cc(OCc3nc(C)c(C)nc3C)c(OCc3nc(C)c(C)nc3C)c(OCc3nc(C)c(C)nc3C)c2)nc1C,> 100
8,COc1ccc(/C=C/C(=O)OCc2nc(C)c(C)nc2C)cc1,< 24
9,COc1ccc(/C=C/C(=O)OCc2nc(C)c(C)nc2C)cc1OC,< 24
10,COc1ccc(OC)c(/C=C/C(=O)OCc2nc(C)c(C)nc2C)c1,< 24
11,COc1cccc(/C=C/C(=O)OCc2nc(C)c(C)nc2C)c1,< 24
